From patent US9217014B2, “Antifungal agents and uses thereof” (Cidara Therapeutics, Inc., priority 2011, dated 2015) come the findings set out here.

Read-outs that look alike come from different tables or passages of the source.

This assay relates to C. albicans R303. Put plainly: mouse candidiasis infection model, IP administration, kidney fungal burden. Type of assay: in vivo. The settings on record: for log reduction at 0.5 mg/kg / log reduction at 1.5 mg/kg / log reduction at 4.5 mg/kg / log reduction at 5 mg/kg: Candida albicans, R303, ip, 24 h, read-out: Difference from 24-h control; for Mean log10 CFU/kidneys (±SEM) / Mean log10 CFU/kidneys (±SD): kidneys 24 h after infection; for overall performance in reducing C. albicans CFUs in the kidneys of the mice: conclusion over all runs; for log reduction at 5 mg/kg / Mean log10 CFU/kidneys (±SD): First run, IP 5 mg/kg; for Mean log10 CFU/kidneys (±SD): neutropenic mice. The procedure: The objective of these studies was to evaluate the efficacy of test compounds in the mouse candidiasis infection model. Amounts of test articles are uncorrected.
The strain, C. albicans R303 was transferred from frozen storage onto Sabauroud dextrose agar (SDA) plates and grown for ˜24 hr at 35° C. The inoculum was prepared by transferring colonies from the plate to phosphate buffered saline (PBS) and the concentration adjusted to approximately 10^6 CFU/mL with the aid of a spectrophotometer. The stock was diluted 1:9 to prepare the inoculum. Prior to each run the concentration was verified using the dilution plate count method.
Female CD-1 mice were used in this study. The animals were approximately seven-weeks-old at the start of the study and weighed about 15-30 g.
Mice were made neutropenic with IP injections of cyclophosphamide (150 mg/kg in 10 mL/kg) at 4 and 1 day before inoculation. Each animal was inoculated with the appropriate concentration by injecting 0.1 mL of inoculum into a tail vein. The test compounds were administered IP at 2 hr after infection.
In a typical procedure, the kidneys were collected from four mice in control group 1 (untreated) at 2 hr after infection, and from another four mice in control group 2 (untreated) at 24 hr after infection. Kidneys were removed aseptically from each mouse and were combined in a sterile tube. An aliquot (2 mL) of sterile PBS was added to each tube and the contents homogenized with a tissue homogenizer (Polytron 3100). Serial dilutions of the tissue homogenates were conducted and 0.1 mL aliquots were spread on SDA plates and the plates incubated at 35° C. overnight. The CFU/kidneys were determined from colony counts. Data were analyzed using one-way ANOVA with either the Tukey-Kramer Multiple Comparisons Test or Dunnett Test (GraphPad InStat version 3.06, GraphPad Software, San Diego, Calif.).
The data reported below are the average of four mice. Each run included a separate control and each is tabulated separately.

With `CCCCCOc1ccc(-c2ccc(-c3ccc(C(=O)N[C@H]4C[C@@H](O)C(NCCOC)NC(=O)C5[C@@H](O)[C@@H](C)CN5C(=O)C([C@@H](C)O)NC(=O)C([C@H](O)[C@@H](O)c5ccc(O)cc5)NC(=O)C5C[C@@H](O)CN5C(=O)C([C@@H](C)O)NC4=O)cc3)cc2)cc1` (stereo partly drawn) [compound 8], the “overall performance in reducing C. albicans CFUs in the kidneys of the mice” value is on record as “performed poorly”. Also, for the setting “Fourth run, IP 0.5 mg/kg”, the log reduction at 0.5 mg/kg worked out at 0.32 and the “Mean log10 CFU/kidneys (±SEM)” value is 4.78 ± 0.15 log10 CFU/kidneys. For the same molecule, where the note is “Fourth run, IP 1.5 mg/kg”, the log reduction at 1.5 mg/kg came to 1.66 and the “Mean log10 CFU/kidneys (±SEM)” value was 3.45 ± 0.37 log10 CFU/kidneys.

As to `CCC(C)CC(C)CCCCCCCCC(=O)N[C@H]1C[C@@H](O)C(NCCOCCOCCN)NC(=O)C2[C@@H](O)CCN2C(=O)C([C@H](O)CCN)NC(=O)C([C@H](O)[C@@H](O)c2ccc(O)cc2)NC(=O)C2C[C@@H](O)CC2C(=O)C([C@@H](C)O)NC1=O` (stereo partly drawn) [compound 19], the “overall performance in reducing C. albicans CFUs in the kidneys of the mice” value is on record as “performed strongly”. In addition, for the setting “Third run, IP 0.5 mg/kg”, the log reduction at 0.5 mg/kg was determined as 2.19 and the “Mean log10 CFU/kidneys (±SEM)” value is given as 3.01 ± 0.07 log10 CFU/kidneys. For the setting “Third run, IP 1.5 mg/kg”, the log reduction at 1.5 mg/kg came out at 3.47 and the “Mean log10 CFU/kidneys (±SEM)” value came to 1.74 ± 0.18 log10 CFU/kidneys. Where the note is “Third run, IP 4.5 mg/kg”, the log reduction at 4.5 mg/kg is 4.03 and the “Mean log10 CFU/kidneys (±SEM)” value stood at 1.17 ± 0.40 log10 CFU/kidneys.

Turning to `CCCCCOc1ccc(-c2ccc(-c3ccc(C(=O)N[C@H]4C[C@@H](O)C(NCCOCCO)NC(=O)C5[C@@H](O)[C@@H](C)CN5C(=O)C([C@@H](C)O)NC(=O)C([C@H](O)[C@@H](O)c5ccc(O)cc5)NC(=O)C5C[C@@H](O)CN5C(=O)C([C@@H](C)O)NC4=O)cc3)cc2)cc1` (stereo partly drawn) [compound 11], the “overall performance in reducing C. albicans CFUs in the kidneys of the mice” value is “performed moderately”. For the same molecule, for the setting “Fourth run, IP 0.5 mg/kg”, the log reduction at 0.5 mg/kg is 0.29 and the “Mean log10 CFU/kidneys (±SEM)” value worked out at 4.82 ± 0.20 log10 CFU/kidneys. Besides, where the note is “Fourth run, IP 1.5 mg/kg”, the log reduction at 1.5 mg/kg worked out at 2.13 and the “Mean log10 CFU/kidneys (±SEM)” value was 2.98 ± 0.03 log10 CFU/kidneys.

With `CCCCCOc1ccc(-c2ccc(-c3ccc(C(=O)N[C@H]4C[C@@H](O)C(NCCOCCOCCOCCN)NC(=O)C5[C@@H](O)[C@@H](C)CN5C(=O)C([C@@H](C)O)NC(=O)C([C@H](O)[C@@H](O)c5ccc(O)cc5)NC(=O)C5C[C@@H](O)CC5C(=O)C([C@@H](C)O)NC4=O)cc3)cc2)cc1` (stereo partly drawn) [compound 14], the “overall performance in reducing C. albicans CFUs in the kidneys of the mice” value was “performed poorly”. Where the note is “Fourth run, IP 0.5 mg/kg”, the log reduction at 0.5 mg/kg was 0.37 and the “Mean log10 CFU/kidneys (±SEM)” value worked out at 4.74 ± 0.17 log10 CFU/kidneys. Also, under “Fourth run, IP 1.5 mg/kg”, the log reduction at 1.5 mg/kg stood at 0.31 and the “Mean log10 CFU/kidneys (±SEM)” value stood at 4.80 ± 0.34 log10 CFU/kidneys.

For the molecule `CCCCCOc1ccc(-c2ccc(-c3ccc(C(=O)N[C@H]4C[C@@H](O)C(OCCN(C)C)NC(=O)C5[C@@H](O)[C@@H](C)CN5C(=O)C([C@@H](C)O)NC(=O)C([C@H](O)[C@@H](O)c5ccc(O)cc5)NC(=O)C5C[C@@H](O)CN5C(=O)C([C@@H](C)O)NC4=O)cc3)cc2)cc1` (stereo partly drawn) [compound 2], the log reduction at 5 mg/kg was 3.6, the “Mean log10 CFU/kidneys (±SD)” value is given as 1.60 ± 0.35 log10 CFU/kidneys and the “overall performance in reducing C. albicans CFUs in the kidneys of the mice” value is “performed moderately”.

Take `CCCCCOc1ccc(-c2ccc(-c3ccc(C(=O)N[C@H]4C[C@@H](O)C(NCCOCCOCCOCCOC)NC(=O)C5[C@@H](O)[C@@H](C)CN5C(=O)C([C@@H](C)O)NC(=O)C([C@H](O)[C@@H](O)c5ccc(O)cc5)NC(=O)C5C[C@@H](O)CN5C(=O)C([C@@H](C)O)NC4=O)cc3)cc2)cc1` (stereo partly drawn) [compound 10]: the “overall performance in reducing C. albicans CFUs in the kidneys of the mice” value is “performed poorly”. Under “Fourth run, IP 0.5 mg/kg”, the log reduction at 0.5 mg/kg was determined as 0.21 and the “Mean log10 CFU/kidneys (±SEM)” value stood at 4.89 ± 0.06 log10 CFU/kidneys. Where the note is “Fourth run, IP 1.5 mg/kg”, the log reduction at 1.5 mg/kg was found to be 0.01 and the “Mean log10 CFU/kidneys (±SEM)” value is given as 5.09 ± 0.11 log10 CFU/kidneys.

`CCCCCOc1ccc(-c2ccc(-c3ccc(C(=O)N[C@H]4C[C@@H](O)C(OCCOCC[N+](C)(C)C)NC(=O)C5[C@@H](O)[C@@H](C)CN5C(=O)C([C@@H](C)O)NC(=O)C([C@H](O)[C@@H](O)c5ccc(O)cc5)NC(=O)C5C[C@@H](O)CN5C(=O)C([C@@H](C)O)NC4=O)cc3)cc2)cc1` (stereo partly drawn) [compound 6]: the “overall performance in reducing C. albicans CFUs in the kidneys of the mice” value is “performed strongly”. Further, for the setting “Second run, IP 0.5 mg/kg”, the log reduction at 0.5 mg/kg worked out at 0.13 and the “Mean log10 CFU/kidneys (±SEM)” value is 4.75 ± 0.19 log10 CFU/kidneys. Further, where the note is “Second run, IP 1.5 mg/kg”, the log reduction at 1.5 mg/kg stood at 3.27 and the “Mean log10 CFU/kidneys (±SEM)” value came to 1.60 ± 0.17 log10 CFU/kidneys. Also, under “Second run, IP 4.5 mg/kg”, the log reduction at 4.5 mg/kg was 4.87 and the “Mean log10 CFU/kidneys (±SEM)” value turned out to be 0.00 ± 0.00 log10 CFU/kidneys.

As to `CCCCCOc1ccc(-c2ccc(-c3ccc(C(=O)N[C@H]4C[C@@H](O)C(NCCN)NC(=O)C5[C@@H](O)[C@@H](C)CN5C(=O)C([C@@H](C)O)NC(=O)C([C@H](O)[C@@H](O)c5ccc(O)cc5)NC(=O)C5C[C@@H](O)CC5C(=O)C([C@@H](C)O)NC4=O)cc3)cc2)cc1` (stereo partly drawn) [compound 15], the “overall performance in reducing C. albicans CFUs in the kidneys of the mice” value is reported as “performed strongly”. Moreover, where the note is “Fourth run, IP 0.5 mg/kg”, the log reduction at 0.5 mg/kg is 3.01 and the “Mean log10 CFU/kidneys (±SEM)” value amounted to 2.09 ± 0.16 log10 CFU/kidneys. Further, where the note is “Fourth run, IP 1.5 mg/kg”, the log reduction at 1.5 mg/kg stood at 3.81 and the “Mean log10 CFU/kidneys (±SEM)” value was found to be 1.29 ± 0.18 log10 CFU/kidneys. Also, under “Second run, IP 0.5 mg/kg”, the log reduction at 0.5 mg/kg is 3.63 and the “Mean log10 CFU/kidneys (±SEM)” value came to 1.25 ± 0.45 log10 CFU/kidneys. For the same molecule, under “Second run, IP 1.5 mg/kg”, the log reduction at 1.5 mg/kg was found to be 3.91 and the “Mean log10 CFU/kidneys (±SEM)” value is 0.96 ± 0.57 log10 CFU/kidneys. Also, under “Second run, IP 4.5 mg/kg”, the log reduction at 4.5 mg/kg came to 4.15 and the “Mean log10 CFU/kidneys (±SEM)” value turned out to be 0.73 ± 0.42 log10 CFU/kidneys.

For the molecule `CCCCCOc1ccc(-c2ccc(-c3ccc(C(=O)N[C@H]4C[C@@H](O)C(OCCNC)NC(=O)C5[C@@H](O)[C@@H](C)CN5C(=O)C([C@@H](C)O)NC(=O)C([C@H](O)[C@@H](O)c5ccc(O)cc5)NC(=O)C5C[C@@H](O)CN5C(=O)C([C@@H](C)O)NC4=O)cc3)cc2)cc1` (stereo partly drawn) [compound 3], the log reduction at 5 mg/kg was determined as 3.63, the “Mean log10 CFU/kidneys (±SD)” value came out at 1.57 ± 0.20 log10 CFU/kidneys and the “overall performance in reducing C. albicans CFUs in the kidneys of the mice” value is given as “performed moderately”.
